We go through 33 compounds from patent US8324390B2, “Tetrazole-substituted anthranilamides as pesticides” (Bayer CropScience AG, priority 2008, dated 2012).

Like-named read-outs stand apart in the source and are kept apart here.

Series [1] deals with green peach aphid (Myzus persicae). As to the kind of experiment: Myzus test (MYZUPE spray treatment). The class given is in vivo. As to conditions: 100 g/ha, 7 days. An excerpt:
Solvent: 78 parts by weight of acetone
(§1) Solvent: 78.0 parts by weight of acetone

For series [2], the system named is caterpillars of the armyworm (Spodoptera frugiperda). In words: Spodoptera frugiperda test (SPODFR spray treatment). It is filed as in vivo. The settings on record: Spodoptera frugiperda, foliar, read-out: effect in % (caterpillars killed).
Excerpt: as §1

Series [3] is described as follows: log P determination by HPLC (EEC Directive 79/831 Annex V.A8). It is filed as physicochemical. The protocol:
The measurements were carried out using an Agilent 1100 LC system with a 50*4.6 Zorbax Eclipse C18 1.8 μm column (oven temperature 55° C., flow rate 2.0 ml/min).
The following mobile phases were used:
Mobile phase A: acetonitrile+1000 μl of formic acid/l
Mobile phase B: Millipore water+900 μl of formic acid/l

Series [4] concerns larvae of the mustard beetle (Phaedon cochleariae). As to the kind of experiment: Phaedon test (PHAECO spray treatment). As to conditions: Phaedon cochleariae, in Brassica rapa, foliar, read-out: effect in % (beetle larvae killed).
[5] abbreviates: application rate 100 g/ha, maize leaf discs.
The mark [6] stands for this setting: reversed-phase HPLC, Zorbax Eclipse C18 column, by HPLC according to EEC Directive 79/831 Annex V.A8, read-out: log P.
Setting [7] is: reversed-phase HPLC, Zorbax Eclipse C18 column, determined by HPLC according to EEC Directive 79/831 Annex V.A8, read-out: log P.

Regarding `CNC(=O)c1cc(Cl)cc(C)c1NC(=O)c1cc(Cn2nnnc2C(F)(F)F)nn1-c1ncccc1Cl` [drawing 605], the “Kill in %/7 days” value in series [1] was 100%.

For the compound `Cc1cc(Cl)cc(C(=O)NC(C)C)c1NC(=O)c1cc(Cn2nnc(C(F)(F)C(F)(F)F)n2)nn1-c1ncccc1Cl` [drawing 603], the “Kill in %/7 days” value in series [1] is recorded as 70%.

In the case of `Cc1cc(I)cc(C(=O)NC(C)C)c1NC(=O)c1cc(Cn2nnc(C(F)(F)F)n2)nn1-c1ncccc1C(F)(F)F` [Example 243], the pest or weed control at 100 g/ha in series [2] (setting [5]) and in series [4] was no less than 80% in each case. In series [3] (setting [6]), the chromatographic logP stood at 3.9.

In the case of `Cc1cc(C#N)cc(C(=O)NC(C)(C)C)c1NC(=O)c1cc(Cn2nnc(C(F)F)n2)nn1-c1ncccc1Cl` [Example 267], the pest or weed control at 100 g/ha in series [2] (in Zea mays) and in series [4] was no less than 80% throughout. The compound also showed a chromatographic logP in series [3] (log P) of 2.88.

Regarding `Cc1cc(Cl)cc(C(=O)NC(C)C)c1NC(=O)c1cc(Cn2nnc(C(F)(F)C(F)(F)C(F)(F)F)n2)nn1-c1ncccc1Cl` [Example 1, 2-(3-chloropyridin-2-yl)-5-(5-heptafluoropropyltetrazol-2-ylmethyl)-2H-pyrazole-3-carboxylic acid (4-chloro-2-isopropylcarbamoyl-6-methylphenyl)amide], the pest or weed control at 100 g/ha in series [2] (in Zea mays) and in series [4] was no less than 80% throughout. The chromatographic logP in series [3] (HPLC, acetonitrile/water with formic acid, read-out: log P) is 4.23.

Take `CC(C)(C)NC(=O)c1cc(Cl)cc(Cl)c1NC(=O)c1cc(Cn2nnc(C(F)F)n2)nn1-c1ncccc1Cl` [Example 287]: the pest or weed control at 100 g/ha in series [2] (in Zea mays) and in series [4] was no less than 80% each time. Moreover, in series [3] (log P), the chromatographic logP was 3.28.

For `Cc1cc(C#N)cc(C(=O)NC(C)C2CC2)c1NC(=O)c1cc(Cn2nnc(C(F)(C(F)(F)F)C(F)(F)F)n2)nn1-c1ncccc1Cl` (centres unmarked) [Example 368], the pest or weed control at 100 g/ha in series [2] (setting [5]) and in series [4] was no less than 80% throughout. The chromatographic logP in series [3] (setting [6]) stood at 4.07.

On to `Cc1cc(I)cc(C(=O)NC(C)C2CC2)c1NC(=O)c1cc(Cn2nnc(C(F)(F)C(F)(F)F)n2)nn1-c1ncccc1Cl` (centres unmarked) [Example 141], for which the pest or weed control at 100 g/ha in series [2] (in Zea mays) and in series [4] was no less than 80% throughout. Further, the chromatographic logP in series [3] (log P) was 4.42.

On to `CNC(=O)c1cc(C#N)cc(C)c1NC(=O)c1cc(Cn2nnc(C(F)(F)F)n2)nn1-c1ccccc1` [Example 431], for which the pest or weed control at 100 g/ha in series [2] (setting [5]) and in series [4] was no less than 80% in each case. Also, the chromatographic logP in series [3] (setting [7]) is 2.81.

For the compound `Cc1cc(Cl)cc(C(=O)NC2CC2)c1NC(=O)c1cc(Cn2nnc(C(F)(F)F)n2)nn1-c1ncccc1Cl` [Example 25], the pest or weed control at 100 g/ha in series [2] (in Zea mays) and in series [4] was no less than 80% throughout. The compound also returned a chromatographic logP in series [3] (log P) of 3.23.

Regarding `Cc1cc(Cl)cc(C(=O)NC(C)(C)C)c1NC(=O)c1cc(Cn2nnc(C(F)F)n2)nn1-c1ncccc1Cl` [Example 258], the pest or weed control at 100 g/ha in series [2] (in Zea mays) and in series [4] was no less than 80% throughout. Besides, the chromatographic logP in series [3] (log P) came out at 3.32.

On to `Cc1cc(I)cc(C(=O)NC2CC2)c1NC(=O)c1cc(Cn2nnc(C(F)(F)F)n2)nn1-c1ncccc1Br` [Example 350], for which the pest or weed control at 100 g/ha in series [2] (setting [5]) and in series [4] was no less than 80% in each case. Also, in series [3] (setting [6]), the chromatographic logP was 3.45.

Consider `Cc1cc(Br)cc(C(=O)NC(C)C2CC2)c1NC(=O)c1cc(Cn2nnc(C(F)F)n2)nn1-c1ncccc1Cl` (centres unmarked) [Example 297], for which the pest or weed control at 100 g/ha in series [2] (in Zea mays) and in series [4] was no less than 80% each time. The compound also showed a chromatographic logP in series [3] (log P) of 3.36.

As for `CNC(=O)c1cc(C#N)cc(C)c1NC(=O)c1cc(Cn2nnc(C(F)(F)F)n2)nn1-c1ccc(OC(F)(F)F)cc1Cl` [Example 531], the pest or weed control at 100 g/ha in series [2] (setting [5]) and in series [4] was no less than 80% throughout. Further, the chromatographic logP in series [3] (setting [7]) worked out at 3.82.

Regarding `CC(NC(=O)c1cc(Cl)cc(Cl)c1NC(=O)c1cc(Cn2nnc(C(F)(F)C(F)(F)F)n2)nn1-c1ncccc1Cl)C1CC1` (centres unmarked) [Example 150], the pest or weed control at 100 g/ha in series [2] (in Zea mays) and in series [4] was no less than 80% throughout. Moreover, the chromatographic logP in series [3] (log P) was found to be 4.12.

For `Cc1cc(F)cc(C(=O)NCC2CC2)c1NC(=O)c1cc(Cn2nnc(C(F)(F)F)n2)nn1-c1ncccc1Cl` [Example 48], the pest or weed control at 100 g/ha in series [2] (in Zea mays) and in series [4] was no less than 80% each time. Further, the chromatographic logP in series [3] (log P) worked out at 3.18.

Take `Cc1cc(C#N)cc(C(=O)NCC2CC2(Cl)Cl)c1NC(=O)c1cc(Cn2nnc(C(F)(F)F)n2)nn1-c1ncccc1Cl` (centres unmarked) [Example 88]: the pest or weed control at 100 g/ha in series [2] (in Zea mays) and in series [4] was no less than 80% each time. This compound yielded a chromatographic logP in series [3] (log P) of 3.5.

In the case of `Cc1cc(I)cc(C(=O)NC2CC2)c1NC(=O)c1cc(Cn2nnc(C(F)(F)C(F)(F)C(F)(F)F)n2)nn1-c1ncccc1Cl` [Example 111], the pest or weed control at 100 g/ha in series [2] (in Zea mays) and in series [4] was no less than 80% in each case. Further, the chromatographic logP in series [3] (by HPLC according to EEC Directive 79/831 Annex V.A8, read-out: log P) was 4.23.

For `CNC(=O)c1cc(Cl)cc(C)c1NC(=O)c1cc(Cn2nnc(C(F)(F)F)n2)nn1-c1ccccc1F` [Example 311], the pest or weed control at 100 g/ha in series [2] (setting [5]) and in series [4] was no less than 80% in each case. In addition, the chromatographic logP in series [3] (setting [6]) turned out to be 3.32.

For the compound `Cc1cc(I)cc(C(=O)NC(C)C)c1NC(=O)c1cc(Cn2nnc(C(F)F)n2)nn1-c1ncccc1Cl` [Example 277], the pest or weed control at 100 g/ha in series [2] (in Zea mays) and in series [4] was no less than 80% throughout. The compound further had a chromatographic logP in series [3] (log P) of 3.2.

On to `CNC(=O)c1cc(Br)cc(C)c1NC(=O)c1cc(Cn2nnc(C(F)(F)C(F)(F)F)n2)nn1-c1ncccc1Cl` [Example 143], for which the pest or weed control at 100 g/ha in series [2] (in Zea mays) and in series [4] was no less than 80% throughout. The compound also had a chromatographic logP in series [3] (log P) of 3.5.

As to `Cc1cc(Cl)cc(C(=O)NC(C)(C)C)c1NC(=O)c1cc(Cn2nnc(C(F)(C(F)(F)F)C(F)(F)F)n2)nn1-c1ncccc1Cl` [Example 362], the pest or weed control at 100 g/ha in series [2] (setting [5]) and in series [4] was no less than 80% each time. In addition, the chromatographic logP in series [3] (setting [6]) was 4.56.

In the case of `Cc1cc(I)cc(C(N)=O)c1NC(=O)c1cc(Cn2nnc(C(F)(C(F)(F)F)C(F)(F)F)n2)nn1-c1ncccc1Cl` [Example 382], the pest or weed control at 100 g/ha in series [2] (in Zea mays) and in series [4] was no less than 80% throughout. In series [3] (log P), this compound gave a chromatographic logP of 3.67.

In the case of `Cc1cc(C#N)cc(C(N)=O)c1NC(=O)c1cc(Cn2nnnc2C(F)(F)F)nn1-c1ncccc1Cl` [Example 192], the pest or weed control at 100 g/ha in series [2] (in Zea mays) and in series [4] was no less than 80% in each case. In addition, the chromatographic logP in series [3] (log P) amounted to 2.12.

Regarding `O=C(NCC1CC1)c1cc(Cl)cc(Cl)c1NC(=O)c1cc(Cn2nnc(C(F)(F)F)n2)nn1-c1ncccc1Cl` [Example 63], the pest or weed control at 100 g/ha in series [2] (in Zea mays) and in series [4] was no less than 80% throughout. For the same compound, in series [3] (log P), the chromatographic logP came to 3.47.

Consider `CNC(=O)c1cc(Cl)cc(C)c1NC(=O)c1cc(Cn2nnc(C(F)(F)C(F)(F)F)n2)nn1-c1ccccc1Cl` [Example 402], for which the pest or weed control at 100 g/ha in series [2] (setting [5]) and in series [4] was no less than 80% throughout. Also, the chromatographic logP in series [3] (setting [7]) stood at 3.78.

`O=C(NC1CCC1)c1cc(Cl)cc(Cl)c1NC(=O)c1cc(Cn2nnc(C(F)(F)C(F)(F)F)n2)nn1-c1ncccc1Cl` [Example 157]: the pest or weed control at 100 g/ha in series [2] (in Zea mays) and in series [4] was no less than 80% throughout. This compound also gave a chromatographic logP in series [3] (log P) of 3.92.

On to `CCNC(=O)c1cc(Br)cc(C)c1NC(=O)c1cc(Cn2nnc(C(F)(F)F)n2)nn1-c1ncccc1Cl` [Example 34], for which the pest or weed control at 100 g/ha in series [2] (in Zea mays) and in series [4] was no less than 80% each time. The compound also gave a chromatographic logP in series [3] (log P) of 3.32.

`N#CCNC(=O)c1cc(Cl)cc(Cl)c1NC(=O)c1cc(Cn2nnc(C(F)(C(F)(F)F)C(F)(F)F)n2)nn1-c1ncccc1Cl` [Example 393]: the pest or weed control at 100 g/ha in series [2] (in Zea mays) and in series [4] was no less than 80% each time. In series [3] (log P), this compound returned a chromatographic logP of 3.59.

As for `O=C(NC1CC1)c1cc(Cl)cc(Cl)c1NC(=O)c1cc(Cn2nnc(C(F)(F)F)n2)nn1-c1ncccc1Cl` [Example 57], the pest or weed control at 100 g/ha in series [2] (in Zea mays) and in series [4] was no less than 80% in each case. The compound further gave a chromatographic logP in series [3] (log P) of 3.18.

`CSC[C@H](C)NC(=O)c1cc(Cl)cc(Cl)c1NC(=O)c1cc(Cn2nnc(C(F)(C(F)(F)F)C(F)(F)F)n2)nn1-c1ncccc1Cl` [Example 394]: the pest or weed control at 100 g/ha in series [2] (setting [5]) and in series [4] was no less than 80% each time. Besides, the chromatographic logP in series [3] (setting [6]) was 4.3.

Consider `Cc1cc(C#N)cc(C(=O)NC(C)C2CC2)c1NC(=O)c1cc(Cn2nnnc2C(F)(F)F)nn1-c1ncccc1Cl` (centres unmarked) [Example 185], for which the pest or weed control at 100 g/ha in series [2] (in Zea mays) and in series [4] was no less than 80% in each case. In series [3] (log P), this compound displayed a chromatographic logP of 3.

Consider `Cc1cc(Cl)cc(C(=O)NC(C)C)c1NC(=O)c1cc(Cn2nnc(C(F)(F)F)n2)nn1-c1ncccc1C(F)(F)F` [Example 227], for which the pest or weed control at 100 g/ha in series [2] (setting [5]) and in series [4] was no less than 80% throughout. The chromatographic logP in series [3] (setting [6]) came out at 3.64.
